Calls of active or inactive are those of the source. The rule behind the calls is not given here.
What was measured:
[1] = species on record: Homo sapiens; experiment: Binding affinity to WT 27-mer Bcl-2 G-quadruplex DNA (unknown origin) at 40 uM by electrospray ionization mass spectra analysis
[2] = species on record: Homo sapiens; experiment: Binding affinity to WT 27-mer Bcl-2 G-quadruplex DNA (unknown origin) at 5 uM by isothermal titration calorimetric assay
[3] = species on record: Homo sapiens; experiment: Binding affinity to Bcl-2 G-quadruplex DNA (unknown origin) at compound/DNA ratio 2:1 by CD spectral analysis
[4] = species on record: Homo sapiens; experiment: Binding affinity to WT 27-mer Bcl-2 G-quadruplex DNA (unknown origin) at compound/DNA ratio 1 to 4 by CD spectral analysis

Compound	Activity [1]	Activity [2]	Activity [3]	Activity [4]
C[n+]1ccc(-c2c3nc(cc4ccc(cc5nc(c(-c6cc[n+](C)cc6)c6ccc2[nH]6)C=C5)[nH]4)C=C3)cc1	inactive	–	–	–
C[n+]1ccc(-c2c3nc(cc4ccc([nH]4)c(-c4cc[n+](C)cc4)c4nc(cc5ccc2[nH]5)C=C4)C=C3)cc1	Active	Active	Active	–
C[n+]1ccc(-c2c3nc(c(-c4cc[n+](C)cc4)c4ccc([nH]4)c(-c4cc[n+](C)cc4)c4ccc([nH]4)c(-c4cc[n+](C)cc4)c4nc2C=C4)C=C3)cc1	–	–	Active	–
C[n+]1ccc(-c2c3nc(c(-c4cc[n+](C)cc4)c4ccc([nH]4)c(-c4cc[n+](C)cc4)c4nc(cc5ccc2[nH]5)C=C4)C=C3)cc1	Active	Active	Active	Active
C[n+]1ccc(-c2c3nc(cc4ccc(cc5nc(cc6ccc2[nH]6)C=C5)[nH]4)C=C3)cc1	inactive	–	–	–

Reference: ChEMBL document CHEMBL3091447, “The effect of pyridyl substituents on the thermodynamics of porphyrin binding to G-quadruplex DNA” (Bioorg Med Chem, 2013)
